Test results: ChEMBL document CHEMBL3751674, “Synthesis, antimicrobial activity of Schiff base compounds of cinnamaldehyde and amino acids” (2016)

Columns and labels:
Type in all cases: functional
Conditions in all cases: read-out: DIZ
[1] = test system: Escherichia coli; assay: Antibacterial activity against Escherichia coli at 0.03 mol/L after 12 to 24 hrs by paper disc method
[2] = test system: Penicillium citrinum; assay: Antifungal activity against Penicillium citrinum at 0.06 mol/L after 2 to 4 days by paper disc method
[3] = test system: Staphylococcus aureus; assay: Antibacterial activity against Staphylococcus aureus at 0.06 mol/L after 12 to 24 hrs by paper disc method
[4] = test system: Aspergillus niger; assay: Antifungal activity against Aspergillus niger at 0.06 mol/L after 2 to 4 days by paper disc method
[5] = test system: Staphylococcus aureus; assay: Antibacterial activity against Staphylococcus aureus at 0.25 mol/L after 12 to 24 hrs by paper disc method
[6] = test system: Escherichia coli; assay: Antibacterial activity against Escherichia coli at 0.06 mol/L after 12 to 24 hrs by paper disc method
[7] = test system: Aspergillus niger; assay: Antifungal activity against Aspergillus niger at 0.03 mol/L after 2 to 4 days by paper disc method
[8] = test system: Escherichia coli; assay: Antibacterial activity against Escherichia coli at 0.13 mol/L after 12 to 24 hrs by paper disc method
[9] = test system: Aspergillus niger; assay: Antifungal activity against Aspergillus niger at 0.13 mol/L after 2 to 4 days by paper disc method
[10] = test system: Aspergillus niger; assay: Antifungal activity against Aspergillus niger at 0.25 mol/L after 2 to 4 days by paper disc method
[11] = test system: Staphylococcus aureus; assay: Antibacterial activity against Staphylococcus aureus at 0.03 mol/L after 12 to 24 hrs by paper disc method
[12] = test system: Penicillium citrinum; assay: Antifungal activity against Penicillium citrinum at 0.25 mol/L after 2 to 4 days by paper disc method
[13] = test system: Escherichia coli; assay: Antibacterial activity against Escherichia coli at 0.25 mol/L after 12 to 24 hrs by paper disc method
[14] = test system: Penicillium citrinum; assay: Antifungal activity against Penicillium citrinum at 0.13 mol/L after 2 to 4 days by paper disc method
[15] = test system: Penicillium citrinum; assay: Antifungal activity against Penicillium citrinum at 0.03 mol/L after 2 to 4 days by paper disc method
[16] = test system: Staphylococcus aureus; assay: Antibacterial activity against Staphylococcus aureus at 0.13 mol/L after 12 to 24 hrs by paper disc method

| Structure (SMILES) | zone of inhibition at 30000 µM [1] [mm] | zone of inhibition at 60000 µM [2] [mm] | zone of inhibition at 60000 µM [3] [mm] | zone of inhibition at 60000 µM [4] [mm] | zone of inhibition at 250000 µM [5] [mm] | zone of inhibition at 60000 µM [6] [mm] | zone of inhibition at 30000 µM [7] [mm] | zone of inhibition at 130000 µM [8] [mm] | zone of inhibition at 130000 µM [9] [mm] | zone of inhibition at 250000 µM [10] [mm] | zone of inhibition at 30000 µM [11] [mm] | zone of inhibition at 250000 µM [12] [mm] | zone of inhibition at 250000 µM [13] [mm] | zone of inhibition at 130000 µM [14] [mm] | zone of inhibition at 30000 µM [15] [mm] | zone of inhibition at 130000 µM [16] [mm] |
| --- | --- | --- | --- | --- | --- | --- | --- | --- | --- | --- | --- | --- | --- | --- | --- | --- |
| COc1ccc(/C=C/C=N/CC(=O)O)cc1 | 8 | 8.7 | 9 | 8 | 8.7 | 8 | 11.3 | 8 | 17.7 | 23.3 | 8 | 21 | 13.5 | 11.7 | 11.5 | 8 |
| O=C(O)C/N=C/C=C/c1ccccc1 | 8 | 11 | 8 | 9 | 11.7 | 8 | 8 | 8 | 8.7 | 11 | 8 | 10.3 | 9.3 | 10.7 | 8 | 8 |
| O=C(O)CC[C@H](/N=C/C=C/c1ccc(Cl)cc1)C(=O)O | 15.7 | 18.7 | 10.5 | 17.3 | 31 | 12 | 17.7 | 17.3 | 23.3 | 21 | 8.3 | 35 | 18.3 | 23 | 17 | 20 |
| O=C(O)CC[C@H](/N=C/C=C/c1ccccc1)C(=O)O | 8 | 14 | 8 | 13.8 | 19.7 | 8 | 8 | 15 | 22.7 | 25 | 8 | 38 | 26 | 25.3 | 9.7 | 8.2 |
| COc1ccc(/C=C/C=N/[C@@H](CCC(=O)O)C(=O)O)cc1 | 8 | 13.3 | 8.3 | 13.2 | 8.3 | 11.3 | 8.8 | 11.7 | 20.3 | 23.2 | 8 | 20.7 | 18.7 | 25.3 | 11.5 | 8 |
| O=C/C=C/c1ccccc1 [CINNAMALDEHYDE] | 8 | 15 | 8 | 16 | 10.5 | 11 | 8 | 11 | 22.3 | 26.7 | 8 | 29.7 | 29.5 | 28.7 | 12.2 | 9 |
